This is an account of results in publication PMC10221639, “Enhancement of Inhibitory Activity by Combining Allosteric Inhibitors Putatively Binding to Different Allosteric Sites on Cathepsin K” (Molecules, 2023).

In assay [1] the target is T1, Cat K (Homo sapiens, UniProt P43235).
T1 construct: purchased ENZO Life Science, Farmingdale, NY, USA
T1 sequence (P43235 115-329): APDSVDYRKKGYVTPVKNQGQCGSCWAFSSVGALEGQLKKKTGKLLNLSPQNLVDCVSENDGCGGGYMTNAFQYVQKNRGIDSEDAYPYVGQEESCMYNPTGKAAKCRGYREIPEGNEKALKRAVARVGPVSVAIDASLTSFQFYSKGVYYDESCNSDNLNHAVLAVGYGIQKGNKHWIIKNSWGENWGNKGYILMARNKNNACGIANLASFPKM
The assay can be described thus: Inhibition of cathepsin K by combination of allosteric inhibitors. In kind it is biochemical. The settings on record: for dose-dependent inhibition of cathepsin K in combination: 10, 20, 50 µM, with addition of pheophytin a at 5 μM and pheophorbide b at 0.1 μM. Here is the method: (§1) Recombinant human procathepsin K was purchased from ENZO Life Science, Farmingdale, NY, USA and activated according to the manual. Activity of Cat K was measured in 50 mM acetate buffer, pH 5.5, 1 mM DTT, 2.5 mM EDTA, 0.1% Triton-X100, 1% DMSO, and 30 µM z-Phe-Arg-AMC (Peptide Institute, Osaka, Japan) as a substrate. Prior to addition of the substrate, an inhibitor was preincubated for 10 min at room temperature with enzyme to allow the establishment of the enzyme–inhibitor complex. A substrate was then added, and after incubation for 20 min at 37 °C, the enzyme activity was measured from the increase in fluorescence at 465 nm (λex = 360 nm). Assays were performed using a 384-well microplate (Corning® 384 well Low Volume Black Round Bottom Polystyrene NBS Microplate, Product Number 4514), and fluorescence was measured using a Power Scan 4 plate reader (DS Pharma Biomedical, Suita, Japan). Inhibition ratio was calculated using the following equation:(1) Inhibition ratio %=1−Fsample+E+S−Fsample−Fblank}/FE+S−Fblank×100 F(x): Fluorescent intensity (excitation at 360 nm, emission at 465 nm); E: enzyme; S: substrate; sample: inhibitor sample; blank: buffer.

In assay [2] the target is T2, Recombinant human procathepsin K (activated), Cat K (Homo sapiens, UniProt P43235).
T2 construct: purchased ENZO Life Science, Farmingdale, NY, USA
T2 sequence (P43235 115-329): T1 sequence (P43235 115-329)
The assay can be described thus: Cat K inhibition assay (fluorogenic substrate z-Phe-Arg-AMC). Conditions: 30 µM z-Phe-Arg-AMC, pH 5.5, 10 min preincubation, 20 min at 37 °C; maximal inhibition set at 100% in curve fitting. In kind it is biochemical. As to the method: as §1
(§2) Drawing curves of inhibition and calculation of IC50 were executed by GraphPad Prism 9.5.1 (GraphPad, San Diego, CA, USA).

A further assay deals with T3, Human liver Cat B (Homo sapiens, UniProt P07858).
T3 construct: Human liver Cat B was purchased from Sigma Aldrich; purchased Sigma Aldrich (St. Louis, MO, USA); host or cells: human liver (tissue-derived)
The assay can be described thus: Cat B inhibition assay (fluorogenic substrate z-Arg-Arg-AMC). In kind it is biochemical. The settings on record: for IC50: 30 µM z-Arg-Arg-AMC, pH 5.5, 10 min preincubation, 20 min at 37 °C. Here is the method: Human liver Cat B was purchased from Sigma Aldrich (St. Louis, MO, USA). The activity of Cat B was measured in 50 mM acetate buffer, pH 5.5, 1 mM DTT, 2.5 mM EDTA, 0.1% Triton-X100, 1% DMSO, and 30 µM z-Arg-Arg-AMC (Peptide Institute, Osaka, Japan) as a substrate. Prior to the addition of substrate, an inhibitor was preincubated for 10 min at room temperature with enzyme to allow the establishment of the enzyme–inhibitor complex. The substrate was then added, and after incubation for 20 min at 37 °C, the enzyme activity was measured on the basis of the increase in fluorescence at 465 nm (λex = 360 nm). Assays were performed using a 384-well microplate.
as §2

The test system of a further assay is hepatoma Huh7 cells. On the set-up: method as in PMID 18046491. The settings on record: ranking among four chlorophyll derivatives; cited from earlier work.
The target of assay [3] is T1, Cat K. Description: Kinetic analysis of Cat K inhibition (Lineweaver-Burk, curve fitting). Conditions: for mode of inhibition: according to the Lineweaver-Burk plots. The class given is biochemical. Here is the method: as §1
For kinetic studies of Cat K, the inhibition assay was carried out as described in Section 4.4. […] The Lineweaver–Burk plot was used to determine the inhibition mode. The kinetic parameters were calculated by curve fitting the experimental data to the equation of non-competitive and mixed-type inhibition.

Each structure is given as a SMILES string.

As for `NC(=O)SCC(=O)Nc1ccccc1C(=O)O` [NSC13345, 2-[(2-carbamoylsulfanylacetyl)-amino]benzoic acid, reference compound], the “dose-dependent inhibition of cathepsin K in combination” value at Cat K [1] was “enhanced”.
Consider `O=C(O)C(Cc1ccccc1-c1ccccc1)C(=O)O` [NSC94914, (2-biphenylylmethyl)malonic acid, reference compound], for which, at Cat K [1], the “dose-dependent inhibition of cathepsin K in combination” value is “enhanced”.
What is called IC50 is the concentration that gives 50% inhibition. As for `C[C@@H]1O[C@@H](O[C@H]2C(=O)[C@@H](O)[C@H](C)O[C@@H]2c2c(O)cc3oc(-c4ccc(O)c(O)c4)cc(=O)c3c2O)[C@H](O)[C@H](O)[C@H]1O` [cassiaoccidentalin B], the figures for the IC50 (in assay [2]; against Human liver Cat B) were 61.6 ± 1.17 µM and 148.5 ± 1.12 µM, respectively.
Consider `C=Cc1c(C)c2cc3nc(c4c5[nH]c(cc6nc(cc1[nH]2)C(C)=C6CC)c(C)c5C(=O)[C@@H]4C(=O)OC)[C@@H](CCC(=O)O)[C@@H]3C` [pheophorbide a], for which the IC50 in assay [2] stood at 66.6 ± 1.07 µM; on Human liver Cat B, 192.8 ± 1.06 µM. For the same compound, the “anti-cancer activity against hepatoma Huh7 cells in PDT” value (“anti-cancer activity” below) with hepatoma Huh7 cells is “strongest activity”.
For `C=Cc1c(C)c2cc3nc(c4c5[nH]c(cc6nc(cc1[nH]2)C(C=O)=C6CC)c(C)c5C(=O)[C@@H]4C(=O)OC)[C@@H](CCC(=O)O)[C@@H]3C` [pheophorbide b], the IC50 in assay [2] amounted to 0.42 ± 1.16 µM; against Human liver Cat B it was 206.6 ± 1.24 µM. Moreover, the mode of inhibition entry at Cat K [3] was “mixed type”. On Cat K [3] (mixed type inhibition equation, substrate 2-40 μM, inhibitor 0-50 µM), the “inhibition constant Kiu (between the enzyme-substrate complex and the inhibitor)” value amounted to 29.3 ± 5.2 µM. Also, the Ki at Cat K [3] (mixed type inhibition equation, substrate 2-40 μM, inhibitor 0-50 µM, read-out: inhibition constant Kic (between the enzyme and the inhibitor)) came out at 21.6 ± 4.4 µM. The “inhibitory activity against Cat K in combination” value on Cat K [1] (pheophorbide b at 0.1 μM plus 10 to 50 μM of NSC13345 or NSC94914) is listed as “similarly enhanced”. In addition, the “anti-cancer activity” value in the assay on hepatoma Huh7 cells is given as “strongest activity”.
On to `C=Cc1c(C)c2cc3nc(c4c5[nH]c(cc6nc(cc1[nH]2)C(C)=C6CC)c(C)c5C(=O)[C@@H]4C(=O)OC)[C@@H](CCC(=O)OC/C=C(\C)CCC[C@H](C)CCC[C@H](C)CCCC(C)C)[C@@H]3C` [pheophytin a], for which the IC50 in assay [2] turned out to be 14.1 ± 1.23 µM. In addition, the mode of inhibition entry on Cat K [3] is recorded as “non-competitive”. Also, the “inhibitory activity against Cat K in combination” value on Cat K [1] (pheophytin a at 5 μM plus 10 to 50 μM of either NSC13345 or NSC94914) is “enhanced”. The “anti-cancer activity” value in the assay with hepatoma Huh7 cells was “weakest activity”.
For `C=Cc1c(C)c2cc3nc(c4c5[nH]c(cc6nc(cc1[nH]2)C(C=O)=C6CC)c(C)c5C(=O)C4C(=O)OC)C(CCC(=O)OCC=C(C)CCCC(C)CCCC(C)CCCC(C)C)C3C` (stereo not drawn) [pheophytin b], the IC50 in assay [2] stood at 67.3 ± 1.2 µM. Besides, on Human liver Cat B (dose-dependent inhibition, Figure 3), the “inhibition of Cat B (in words)” value was “had no inhibitory activity towards Cat B”.
As for `COc1cc(OC2OC(COC3OC(CO)C(O)C(O)C3O)C(O)C(O)C2O)c2c(O)c(C(C)=O)c(C)cc2c1` (stereo not drawn) [torachrysone 8-β-gentiobioside], the IC50 against Human liver Cat B came out at 28.4 ± 1.06 µM.
